Here are results for 13 molecules from article PMC4973902, “Identification of Novel Smoothened Ligands Using Structure-Based Docking” (PLoS ONE, 2016).

Data set [1] can be described thus: Aggregation counter-screens (DLS, centrifugation, unrelated enzymes), overall outcome. Format: physicochemical. The following applies: enzyme counter-screens. Here is the method: All the antagonists with low micromolar IC50 were counter-screened for colloidal aggregation, a common mechanism of artefactual activity in early ligand discovery. […] These observations highlight the importance of counter-screening for this artefactual mechanism of action when evaluating new Smoothened antagonists.
(§1) The assays were performed as always with the addition of a centrifugation step. The antagonists were diluted in media to their final concentration. Half the solution was used as standard treatment: the media in wells was replaced with the media containing the drugs. The other half of the solution was then centrifuged for 20 min at 21,000g. The supernatant was used to replace the media in the wells.
(§2) Compounds 13b, 19b, 20b, 25b, 27b, 32b, 37b, 40b and 45b were diluted with both filtered DMEM and KPi, with a final concentration of 1% DMSO. Measurements were made using a DynaPro Plate Reader II system (Wyatt Technology) with a 60 mW laser at ~830 nm in either 96-well or 384-well plates; this particular instrument had been modified by Wyatt Technology to have a larger laser beam width that is appropriate for detecting large colloidal particles.
Both DMEM and KPi were used as buffer.

Data set [2] concerns Gli1 expression in Ptch1-/- MEFs. The data set can be described thus: qPCR of Gli1 expression in Ptch1-/- MEFs. The following applies: for IC50: Mus musculus. It is filed as cell-based, mouse. How it is done: (§3) Antagonist candidates were tested using Ptch1^-/- reporter mouse embryonic fibroblasts (MEFs). In Ptch1^-/- cells, the Hh pathway is constitutively activated as a result of deletion of Patched-1, the Hedgehog receptor and a functional inhibitor of Smo. The reporter cells were engineered to express the 8XGli-Luciferase reporter that faithfully monitors levels of Gli-mediated transcriptional activity as a readout of Hedgehog signalling. Firefly Luciferase is therefore constitutively expressed in these cells and its expression is inhibited by Smo antagonists such as cyclopamine. In the initial test for activity, we screened the 21 docking hits at a dose of 30 μM. […] Their ability to repress the pathway was further confirmed by quantifying transcript levels of Gli1, a target gene of the Hedgehog pathway, using qPCR (Fig 1C and S1 Table).
(§4) Ptch1^-/- MEFs or C3H10T1/2 SMO cells (overexpression of mouse Smo wt or mouse Smo D477H using a retroviral vector) were plated at a density of 2x10^5 cells/well in 12-well plates. The next day, the confluent cells were serum-starved with plain DMEM for 24 h before drugs and compounds were added to the indicated final concentration. RNA was extracted using Trizol (Life Technologies, 15596–018) after 24 h. 1 μg of RNA was DNase-treated (Life Technologies, 18047–019) before being reverse transcribed into cDNA (High-Capacity Reverse Transcription kit, Life Technologies, 4368813). Real-time quantitative PCR reactions were performed on an ABI 7900HT in 384-well plates containing 20 ng cDNA, using Power SYBR Green PCR Master Mix (Life Technologies, 4367660). Relative Gli1 mRNA levels were calculated using the comparative Ct method, normalized to Gapdh mRNA. Primers used were validated as previously described.

Data set [3] relates to Gli-Luciferase reporter in Ptch1-/- MEFs. The data set can be described thus: 8xGli-Luciferase reporter assay in Ptch1-/- MEFs. Format: cell-based, mouse. The following applies: for inhibition at 30 µM / IC50: Mus musculus; for inhibition at 30 µM: compared to DMSO; for IC50: read-out: IC50 Gli-Luciferase assay (range, n); for Inhibition of Gli-Luciferase (yes/no): single-dose screen at 30 μM (vismodegib 100 nM). Here is the method:
as §3
Ptch1^-/- MEFs stably expressing the Gli-Luciferase reporter and constitutive Renilla Luciferase were used. The Gli-Luciferase reporter is a Firefly Luciferase reporter driven by 8xGli consensus binding site in its promoter, cloned in a lentiviral plasmid carrying a puromycin resistance for selection. For the assay, 5x10^4 cells/well were plated in 48-well plates. The next day, the confluent cells were serum-starved with plain DMEM for 24 h. Drugs and compounds were added to the indicated final concentration and incubated for 24 h, each condition in duplicate. For the assay, Promega Dual Glow reagents were used. Media was removed and cells were lysed in 50 μL Passive Lysis Buffer for 10 min. 10 μL of lysate was assayed in black plates with 10 μL of each substrate, in duplicate. Luminescence was measured with an EnVision 2100 (Perkin Elmer). Firefly Luciferase luminescence was divided by the Renilla Luciferase luminescence, then normalized to vehicle condition to obtain the fold change in reporter activity.

The target of another data set is mouse Smoothened (Mus musculus, UniProt P56726). The following applies: for Binding (yes/no), BODIPY-cyclopamine displacement: HEK293 mSmo-mCherry.
Chain of mouse Smoothened (P56726 33-793): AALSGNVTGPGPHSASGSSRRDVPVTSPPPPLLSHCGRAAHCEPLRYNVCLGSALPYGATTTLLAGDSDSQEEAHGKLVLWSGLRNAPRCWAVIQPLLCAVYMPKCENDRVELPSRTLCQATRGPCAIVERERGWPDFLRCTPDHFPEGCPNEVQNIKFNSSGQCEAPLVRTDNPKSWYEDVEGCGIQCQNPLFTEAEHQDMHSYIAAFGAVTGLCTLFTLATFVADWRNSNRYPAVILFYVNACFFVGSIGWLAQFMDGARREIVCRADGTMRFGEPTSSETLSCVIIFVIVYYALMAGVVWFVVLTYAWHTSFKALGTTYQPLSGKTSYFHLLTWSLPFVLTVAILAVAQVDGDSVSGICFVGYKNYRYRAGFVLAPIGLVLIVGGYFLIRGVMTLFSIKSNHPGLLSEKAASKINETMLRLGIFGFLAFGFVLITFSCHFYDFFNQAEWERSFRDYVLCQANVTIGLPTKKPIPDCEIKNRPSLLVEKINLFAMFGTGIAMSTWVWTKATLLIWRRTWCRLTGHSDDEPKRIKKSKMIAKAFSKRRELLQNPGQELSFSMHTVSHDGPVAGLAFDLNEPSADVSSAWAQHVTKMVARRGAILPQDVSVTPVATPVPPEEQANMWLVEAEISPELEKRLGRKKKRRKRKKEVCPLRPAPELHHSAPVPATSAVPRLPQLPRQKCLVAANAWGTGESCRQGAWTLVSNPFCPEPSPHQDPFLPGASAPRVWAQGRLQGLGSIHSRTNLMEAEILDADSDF
For data set [4], the target named is T1, mouse D477H mutant (equivalent to human D473H) of Smo (Mus musculus, UniProt P56726, D477H).
T1 construct: expressed in transfected cells; host or cells: C3H10T1/2 cells, retroviral transduction
T1 sequence (P56726 33-793 D477H): as the sequence (P56726 33-793) above, with D445H counted along it
The data set can be described thus: Gli1 qPCR dose-response in C3H10T1/2 cells overexpressing Smo D477H. Format: cell-based.
Excerpt: (§5) Fig 7 Binding poses and inhibition of vismodegib-resistant Smo by 45b. (A) Side view of the complex of Smo structure (represented as purple surface, TM6 was cut) with LY2940680 in the orthosteric site (represented as light pink sticks). (B)-(F) Predicted binding modes against the Smo WT of compounds 3, 6, 44, 244 and 45b, respectively. LY2940680 is represented as light pink wires, the compounds as green sticks, hydrogen bonds as black dashed lines and important residues as sticks. […] C3H10T1/2 cells were transduced with retrovirus for the overexpression of Smo wt or Smo D477H. (H) Predicted binding modes of compound 45b against a model of D473H Smo.
as §4, with “1 μg of RNA was DNase-treated (Life Technologies, 18047–019) before being reverse transcribed into cDNA (High-Capacity Reverse Transcription kit, Life Technologies, 4368813).” left out, “Primers used were validated as previously described.” left out
A general note: Quantitative PCR measures a nucleic acid by following its amplification.

A further data set concerns the target T2, Smo wt (Mus musculus, UniProt P56726).
T2 construct: expressed in transfected cells; host or cells: C3H10T1/2 cells, retroviral transduction
The data set can be described thus: Gli1 qPCR dose-response in C3H10T1/2 cells overexpressing Smo wt. It is filed as cell-based. The following applies: read-out: inhibition of Smo WT (dose-response, Fig 7G).
Excerpt: as §5
as §4, with “1 μg of RNA was DNase-treated (Life Technologies, 18047–019) before being reverse transcribed into cDNA (High-Capacity Reverse Transcription kit, Life Technologies, 4368813).” left out, “Primers used were validated as previously described.” left out

The subject of data set [5] is TOPFLASH Wnt-ß-catenin reporter (Frizzled receptors). Briefly: TopFlash Wnt-ß-catenin reporter assay in HEK293T cells. The following applies: Wnt3a-conditioned media. In general terms: Reporter assays use an easily measured gene product as a stand-in for the process of interest.
Experimental: We used HEK293T TopFlash cells, expressing a luciferase reporter under the control of a ß–catenin-responsive LEF/TCF promoter.
The assay was carried out in HEK293T, as described [71].
A short description of data set [6]: Dynamic Light Scattering (DLS). The following applies: 1 μM. It is filed as physicochemical. How it is done: as §2
In another data set the target is T3, Smoothened (Mus musculus, UniProt P56726).
T3 construct: endogenous in cells; host or cells: Ptch1-/- MEFs with 8xGli-Luciferase reporter (inferred)
T3 sequence (P56726 33-793): as the sequence (P56726 33-793) above
The data set can be described thus: Centrifugation counter screen of Smo antagonism. It is filed as cell-based. The following applies: 20 min centrifugation; Gli-luciferase, Gli1 qPCR, bodipy-cyclopamine displacement. Here is the method: as §1

A further data set concerns Smo mutations at D473. Also on record: method as in PMID 25008467. The following applies: cited from earlier work.
In a further data set the test system is D473H mutant of Smo. More on the design: method as in PMID 19726788. The following applies: cited from earlier work.
The mark [7] stands for this setting: 24 h, read-out: IC50 Gli1 qPCR (range, n).

For orientation: inhibition means the drop in the measured response relative to a control, in per cent. Higher therefore signals strong suppression.

“Also recorded” adds a separate entry of the source. Where two headings read alike, the source gives them in different places.

T2 sequence (P56726 33-793): as above
Experimental for mouse Smoothened: Using a stable line enabling the inducible expression of Smo-mCherry, we tested whether well-behaved, non-aggregating antagonists can specifically displace BODIPY-cyclopamine bound to Smoothened using flow cytometry.
Left: average cell fluorescence was measured by flow cytometry and plotted against antagonist concentration. Representative curve are shown.
A 293 stable cell line expressing tetracycline-inducible mouse Smoothened with mCherry fused to its C-terminus was used for these experiments. Cells were grown to confluence in the presence of 1 μg/mL tetracycline for 24 h. Cells were then incubated with 10 nM BODIPY-Cyclopamine and compounds for 2 h at 37°C. For FACS, cells were first trypsinized, fixed with 4% paraformaldehyde for 20 min, washed with TBS + 0.1% Triton X-100 and then sorted (FACS). BODIPY fluorescence was measured on the FACS Fortessa and FACS data was analyzed with FlowJo software. BODIPY fluorescence in control HEK293 was used to set the background threshold. Mean fluorescence was plotted against the compound concentration to calculate its IC50. For microscopy, fixed cells were imaged. Live cells were washed with PBS before fixing.

On to `Cc1cccc(C(=O)Nc2cccc(NC(=O)Cc3cccnc3)c2)c1` [Compound 3], for which, in data set [1], the “outcome of aggregation counter-screens” value was “well-behaved antagonists”. Also, in [2], the “Inhibition - Gli1 qPCR (yes/no)” value is “yes”. Also, in data set [2] (setting [7]), the IC50 stood at 94.8 µM. Besides, in [3], the inhibition at 30 µM was greater than 50% and the “Inhibition of Gli-Luciferase (yes/no)” value is “yes”. Further, the IC50 in [3] (24 h) was determined as 43 µM. In addition, at mouse Smoothened, the IC50 amounted to 166 µM and the “Binding (yes/no), BODIPY-cyclopamine displacement” value (shortened to “Binding (yes/no)”) is reported as “yes”.

Consider `CN(C)c1ccc(CNC(=O)Nc2ccc(-n3ccnc3)nc2)cn1` [Compound 6], for which the “outcome of aggregation counter-screens” value in data set [1] was “well-behaved antagonists”. Besides, the “Inhibition - Gli1 qPCR (yes/no)” value in data set [2] is given as “yes”. For the same molecule, the IC50 in data set [2] (setting [7]) came to 109 µM. In data set [3], the inhibition at 30 µM was greater than 50% and the “Inhibition of Gli-Luciferase (yes/no)” value is recorded as “yes”. The IC50 in [3] (24 h) is 20.8 µM.

On to `COc1ccccc1C(=O)Nc1cccc(NC(=O)Cc2cccnc2)c1` [Compound 13b], for which the IC50 in [3] (24 h) was 10.9 µM.

In the case of `c1ccc(CNc2cc(-c3ccc4c(c3)CNCC4)c3cc[nH]c3n2)nc1` [Compound 19b], the IC50 in data set [3] (24 h) stood at 22.4 µM.

With `NC(=O)c1cc(-c2cc(NCc3ccccn3)nc3[nH]ccc23)cs1` [Compound 25b], the “outcome of aggregation counter-screens” value in data set [1] is “well-behaved antagonists”. Further, the IC50 turned out to be 7.8 µM in [2] (setting [7]) and 2.3 µM in data set [3] (24 h).

For `Cc1cc2c(-c3cc(NCc4ccccn4)nc4[nH]ccc34)ncnc2s1` [Compound 32b], the “outcome of aggregation counter-screens” value in data set [1] was “well-behaved antagonists”. Besides, the figures for the IC50 in [2] (setting [7]) and in data set [3] (24 h) were 12.7 µM and 9.4 µM, respectively.

As to `NC(=O)c1cc(-c2cc(NCc3cccnc3)nc3[nH]ccc23)cs1` [Compound 37b], the “outcome of aggregation counter-screens” value in data set [1] was “well-behaved antagonists”. Besides, the IC50 is 8.8 µM in [2] (setting [7]) and 5.4 µM in data set [3] (24 h).

With `COc1cc(-c2cc(NCc3ccccn3)nc3[nH]ccc23)ccc1O` [Compound 44], the “outcome of aggregation counter-screens” value in [1] is “well-behaved antagonists”. In [2], the “Inhibition - Gli1 qPCR (yes/no)” value is “yes”. Besides, in data set [2] (setting [7]), the IC50 turned out to be 14 µM. In data set [3], the inhibition at 30 µM is greater than 50% and the “Inhibition of Gli-Luciferase (yes/no)” value was “yes”. Besides, in [3] (24 h), the IC50 stood at 34.4 µM. Moreover, at mouse Smoothened, the IC50 was found to be 15.6 µM and the “Binding (yes/no)” value is listed as “yes”.

Consider `CSc1nc(C)cc(-c2cc(NCc3ccccn3)nc3[nH]ccc23)n1` [Compound 45b], for which the IC50 was determined as 3.1 µM in data set [4] (C3H10T1/2 cells overexpressing mouse Smo D477H, read-out: inhibition of Smo D473H mutant (dose-response, Fig 7G)); 1100 nM at Smo wt; 5.3 µM in [2] (setting [7]); 3.1 µM in data set [3] (24 h); 12.7 µM at mouse Smoothened. Further, the “shift at D473H mutant relative to WT” value in data set [4] (D473H vs WT) is on record as 2.7 fold. Moreover, the “activity on TOPFLASH Wnt-ß-catenin reporter” value in [5] (10 μM, 24 hours co-treatment) was “no detectable activity; also recorded: lack of inhibition”. In addition, the “outcome of aggregation counter-screens” value in data set [1] was “well-behaved antagonists”.

`NC(=O)c1ccc(-c2cc(NCc3ccccn3)nc3[nH]ccc23)o1` [Compound 244]: the “outcome of aggregation counter-screens” value in data set [1] is listed as “well-behaved antagonists”. In addition, in data set [2], the “Inhibition - Gli1 qPCR (yes/no)” value is “yes”. Further, the values for the IC50 (in data set [2] (setting [7]); in [3] (24 h); at mouse Smoothened) were 11.3 µM, 5.3 µM and 58.3 µM, respectively. The molecule further registered an inhibition at 30 µM in data set [3] greater than 50%. The “Inhibition of Gli-Luciferase (yes/no)” value in data set [3] is on record as “yes”. Besides, the “Binding (yes/no)” value on mouse Smoothened is “yes”.

As for `CCC(C)n1ncn(-c2ccc(N3CCN(c4ccc(OCC5COC(Cn6cncn6)(c6ccc(Cl)cc6Cl)O5)cc4)CC3)cc2)c1=O` (stereo not drawn) [itraconazole], the “radius of colloidal particles by DLS” value in [6] (DMEM) came out at 180 nm. Also, the “effect of centrifugation on antagonism of Smo” value on Smoothened was “disrupted by prior-centrifugation; also recorded: largely or entirely eliminated”.

Regarding `CN(C(=O)c1ccc(F)cc1C(F)(F)F)C1CCN(c2nnc(-c3ccnn3C)c3ccccc23)CC1` [taladegib], in the data set with Smo mutations at D473, the “efficacy in the resistant mutants” value is “unaffected or have minor drop in efficacy”.

As to `CS(=O)(=O)c1ccc(C(=O)Nc2ccc(Cl)c(-c3ccccn3)c2)c(Cl)c1` [vismodegib, reference compound], the “particle formation by DLS” value in data set [6] is on record as “does not form particles”. The “activity on TOPFLASH Wnt-ß-catenin reporter” value in data set [5] (100 nM) was “lack of inhibition”. For the same molecule, in the data set on D473H mutant of Smo, the “reduction of binding to Smo by D473H mutation” value is 100 folds. For the same molecule, the IC50 is 0.0018 µM in data set [2] (read-out: IC50 mGli1 qPCR (range, n)) and 0.0306 µM in data set [3].
